Earlier results in patent US9072783B2, “Highly dispersible powders, compositions and methods for preparation” (Aridis Pharmaceuticals, priority 2009, dated 2015).

Settings: of the amino acid itself (Table 3)

| Structure (SMILES) | Hydropathy Index |
| --- | --- |
| N[C@@H](Cc1ccc(O)cc1)C(=O)O [Tyrosine, tyrosine] | −1.3 |
| N[C@@H](CC(=O)O)C(=O)O [Aspartic Acid, aspartic acid] | −3.5 |
